From US20070238700A1, “N-PHENYL-1,1,1-TRIFLUOROMETHANESULFONAMIDE HYDRAZONE DERIVATIVE COMPOUNDS AND THEIR USAGE IN CONTROLLING PARASITES” (priority 2006, published 2007)
Where two headings read alike, the source gives them in different places.

Tests used:
Rhipicephalus sanguineus [1] = test: Rapid screening protocol for topical application on brown dog ticks (% mortality); parameters: concentration or dose not given beside the values
Description: d) Rapid Screening Protocol for Topical Application on Brown Dog Ticks (Rhipicephalus sanguineus)
The aim of the test was to determine the presence of significant acaricidal activity in sample compounds or formulations when applied topically on brown dog ticks. A tick was defined as dead if it gave no apparent response when touched lightly and observed for 1 minute. To assess the experimental compound for acaricidal activity, a single dose level was chosen based on known results from previous experiments with a commercially available active reference compound. Both permethrin and fipronil were employed as reference compounds. The insect species tested was the Brown Dog Tick (Rhipicephalus sanguineus). Mixed sex adult ticks were used for tests. The strain used was cultured by von Berky Veterinary Services, Woody Point, QLD, AU and supplied as unfed adult ticks (mixed sex). Ticks were maintained in controlled conditions (temp. 18°±2° C., humidity 75±5% RH).
Test compounds (formulations or active ingredients) were stored in a refrigerator (5±1° C.) unless otherwise specified. Temperature was maintained at 25±1° C. and the humidity was ambient. The screening dose chosen was higher than that known to kill 90% of insects (LD90) using the reference compound. In the case of topical application of active compounds on adult ticks, the reference compound was fipronil and the dose chosen was 10 μg of active per tick (=10 μg of fipronil/1 μl of acetone). Ticks were each treated on the abdomen with 1 μL of a single dose level of test sample in acetone; ten ticks were treated with solvent only (acetone) in each test. Tests were replicated 4 times (total of 40 ticks treated). Ticks were held in recovery containers maintained under appropriate rearing conditions for 24 hours. Mortality resulting from the treatments was recorded at 24 hours. Pooled 24 hour mortality data were converted to percentages.

Ctenocephalides felis [2] = test system: Ctenocephalides felis
Summary of the method: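 Adult cat fleas (3–7 days post-emergence), 15 per flask in ≥4 replicates, exposed to a dried acetone residue at 1.26 μg/cm^2 on a Coatasil-treated glass flask base. Held at 25±1° C, 75±5% humidity; mortality (immobile or unable to right) scored at 8, 24 and/or 48 h.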

Ctenocephalides felis [3] = test: Ctenocephalides felis adulticide assay: C. felis dose response (LC50)
Description: c) Ctenocephalides felis Adulticide Assay: C. felis Dose Response
The purpose of this example was to determine the LC50 when cat fleas were contacted with a glass surface treated with sample compounds or formulations prepared as described above. […] The test species was the cat flea (Ctenocephalides felis). The strain used was obtained from external suppliers as pupae and held in the laboratory under testing conditions until the adults had emerged. Fifteen (15) fleas were used in a minimum of four replicates for each dose level (total of 60 fleas per dose level). The insects were selected to be in the adult life stage, aged between 3 and 7 days post emergence.
The compounds to be tested were dissolved in acetone just prior to testing. Samples of compounds were stored in a refrigerator (5±1° C.) unless otherwise specified. During the mortality testing, the temperature was maintained at 25±1° C. Humidity was maintained at 75±5%. The base (area=159 mm^2) of a 100 mL glass Erlenmeyer (conical) flask provided the treatment surface. Flasks were pretreated with Coatasil™ glass treatment to maximise bio-availability of test compounds by preventing them from binding to the glass surface.
The base of the 100 mL Erlenmeyer flask was treated with 0.5 mL of test sample in acetone and gently swirled. This volume was sufficient to cover the base of the flask. Flasks were left to dry for 24 hours before flea exposure. Adult cat fleas were lightly anaesthetised by cooling and then placed into a sorting chamber, which allowed fleas to revive and jump into the Erlenmeyer flasks. Fifteen (15) adult cat fleas were collected in each flask. The top of the flasks were then covered in Parafilm™ and small holes made to allow gas exchange. A 0.5 mL volume of acetone was applied to the base of an Erlenmeyer flask and the testing proceeded in the same manner described above. Cat fleas in the treatment containers were held under testing conditions for 24 hours. Mortality resulting from the treatments was recorded at 8 and 24 hours.

Rhipicephalus sanguineus [4] = test: Dose response protocol for topical application on brown dog ticks (LD50); settings: 24 h mortality, probit analysis
Description: e) Dose response protocol for topical application on brown dog ticks (Rhipicephalus sanguineus): The test determines the level of insecticidal activity of sample compounds or formulations when applied topically on brown dog ticks. Sample compounds were stored prior to use in a freezer (−5±1° C.), unless otherwise specified.
• Mortality: A tick is defined as dead after it gives no apparent response when touched lightly or gently breathed upon, while observed for 30 seconds. • LD50 (Lethal Dose 50): The dose of a topically applied treatment at which 50% of the dog ticks are killed. • Reference compound: To assess an experimental compound for significant acaricidal activity a single dose level is chosen, which is based upon known results from previous experiments using a commercially available active i.e., a reference compound. The reference compound selected is one in common use, and one that has a similar mode of action against the Brown Dog Tick (i.e., the test species), • Recovery container: A recovery container consists of a 500 ml round plastic container measuring 115 mm diameter and 70 mm height, with a tight fitting lid that has 10 small (˜1 mm) holes inserted for air exchange. A 90 mm diameter piece of filter paper was placed on the bottom of the container and moistened with 1 mL of distilled water.
Adult, mixed sex, Brown Dog Ticks (Rhipicephalus sanguineus) were reared as follows: (i) cultured, (ii) transferred unfed, to a testing laboratory, and (iii) then maintained under controlled conditions (i.e., temp. 18°±2° C., humidity 75±5% RH). The ticks used were selected for vigor prior to testing, i.e., capable of actively walking and responsive to being touched or gently breathed upon.
During the testing, the temperature was maintained at 25±1° C. and the humidity was ambient. Seven dose levels (concentrations) of sample compound, in the form of serial dilutions in acetone, were derived from a pilot study and covered a range that produced very low to very high mortality. Groups of ten ticks were treated topically (on the abdomen) with 1 μL of a single dose level of the sample compound. Each test was replicated four times, i.e., employing a total of 40 ticks per dose level of each sample compound. As a control, ten ticks were treated with solvent only (acetone) for each test. Following the treatment, the ticks were held in recovery containers maintained under appropriate rearing conditions for 24 hours. Mortality resulting from the treatments was recorded at 24 hours. […] Press, London (1971).]

Row | Structure (SMILES) | R. sanguineus Mortality (%) 24 h (Rhipicephalus sanguineus [1]; data from laboratory 1) | R. sanguineus Mortality (%) 24 h (Rhipicephalus sanguineus [1]; data from laboratory 2) | C. felis Mortality (%) 24 h (Ctenocephalides felis [2]) | C. felis LC50 (Ctenocephalides felis [3]; data from laboratory 1) | R. sanguineus LD50 (Rhipicephalus sanguineus [4]) | C. felis Mortality (%) 8 h (Ctenocephalides felis [2]) | C. felis LC50 (Ctenocephalides felis [3]) | C. felis Mortality (%) 48 h (Ctenocephalides felis [2]) | C. felis Mortality (%) 24 h (Ctenocephalides felis [2]; 24 h, data from laboratory 1) | C. felis Mortality (%) 48 h (Ctenocephalides felis [2]; 48 h, data from laboratory 1)
1 | CC(=NN(C)c1ccccc1)c1cc(Cl)ccc1NS(=O)(=O)C(F)(F)F [Compound 9] | 88% | 98% | 100^B % | 0.86 ppm |  |  |  |  |  | 
2 | CC(=NN1CCOCC1)c1cc(Cl)ccc1NS(=O)(=O)C(F)(F)F [Compound 20] | 95^A % |  | 100% |  | 0.75 μg/tick | 100% | 0.86 ppm |  |  | 
3 | CC(=NN1CCCCC1)c1cc(Cl)ccc1NS(=O)(=O)C(F)(F)F [Compound 21, N-[2-[1-(1-piperidyl)imino]ethyl-4-chlorophenyl]-trifluoromethanesulfonamide] | 78^A % |  | 100% | 0.90 ppm | 0.64 μg/tick | 100% |  |  |  | 
4 | CC(=NN1CCOC1=O)c1cc(Cl)ccc1NS(=O)(=O)C(F)(F)F [Compound 23] | 95^A % |  | 100% |  | 0.99 μg/tick | 100% | 2.0 ppm |  |  | 
5 | CCCN(N=C(C)c1cc(Cl)ccc1NS(=O)(=O)C(F)(F)F)c1ccccc1 [Compound 25] | 75^A % |  | 100% |  | 1.2 μg/tick | 100% | 1.8 ppm |  |  | 
6 | CCN(N=C(C)c1cc(Cl)ccc1NS(=O)(=O)C(F)(F)F)c1ccc(Cl)cc1 [Compound 26] |  | 97% | 100% |  | 5.4 μg/tick |  | 0.12 ppm | 100% |  | 
7 | CCCN(N=C(C)c1cc(Cl)ccc1NS(=O)(=O)C(F)(F)F)c1ccc(Cl)cc1 [Compound 27] |  | 95% | 100% |  | 5.5 μg/tick |  | 0.23 ppm | 100% |  | 
8 | CCN(N=C(C)c1cc(Cl)ccc1NS(=O)(=O)C(F)(F)F)c1ccc(Cl)cc1Cl [Compound 30] |  | 90% | 100% |  | 8.5 μg/tick |  | 5.2 ppm | 100% |  | 
9 | CCN(N=C(C)c1cc(Cl)ccc1NS(=O)(=O)C(F)(F)F)c1ccccc1 [Compound 34] |  | 100% |  | 0.97 ppm | 3.6 μg/tick |  |  |  | 100% | 100%
10 | CCC(=NN1CCOC1=O)c1cc(Cl)ccc1NS(=O)(=O)C(F)(F)F [Compound 35] |  | 100% | 100% |  | 1.5 μg/tick |  | 4.3 ppm | 100% |  | 
11 | CCC(=NN1CCOCC1)c1cc(Cl)ccc1NS(=O)(=O)C(F)(F)F [Compound 36] |  | 100% | 100% |  | 1.8 μg/tick |  | 2.5 ppm | 100% |  | 
12 | CCN(N=C(C)c1cc(Cl)ccc1NS(=O)(=O)C(F)(F)F)c1cccc(Cl)c1 [Compound 38] |  | 98% | 100% |  | 3.6 μg/tick |  | 2.5 ppm | 100% |  | 
13 | CCN(N=C(C)c1cc(Cl)ccc1NS(=O)(=O)C(F)(F)F)c1ccc(F)cc1 [Compound 39] |  | 100% | 100% |  | 3.6 μg/tick |  | 0.14 ppm | 100% |  | 
14 | CCCN(N=C(C)c1cc(Cl)ccc1NS(=O)(=O)C(F)(F)F)c1ccc(C(F)(F)F)cc1 [Compound 41] |  | 100% | 94% |  | 3.8 μg/tick |  | 0.44 ppm | 100% |  | 
15 | CCN(N=C(C)c1cc(Cl)ccc1NS(=O)(=O)C(F)(F)F)c1ccccc1F [Compound 43] |  | 100% | 90% |  | 3.0 μg/tick |  | 0.35 ppm | 100% |  | 
16 | CC(=NN(C)c1ccc(Br)cc1)c1cc(Cl)ccc1NS(=O)(=O)C(F)(F)F [Compound 63] |  | 100% | 100% |  |  | 100% | 2.4 ppm |  |  | 
17 | CC(=NN(C)c1ccc(C)cc1)c1cc(Cl)ccc1NS(=O)(=O)C(F)(F)F [Compound 75] |  | 100% | 100% |  |  | 100% | 1.4 ppm |  |  | 
